Data from patent US20260108547A1, “LEVERAGING L-FUCOSE-MEDIATED SIGNALING TO INDUCE MONOCYTE-DERIVED DENDRITIC CELL POLARIZATION” (H. LEE MOFFITT CANCER CENTER AND RESEARCH INSTITUTE, INC., priority 2022, published 2026).

Tests used:
HLA-DRB1 [1] = assay: Flow cytometric assessment of cell surface fucosylation and HLA-DRB1 in melanoma cells; format: cell-based, human; conditions: 250 μM, 72 h; flow cytometry
Method: Indicated cells were treated for 72 h with DMSO, 250 μM fucosyltransferase inhibitor (FUTi) (Millipore Sigma (St. Louis, MO)), or 250 μM of L-fucose (Biosynth (Oak Terrace, IL)). After 72 h, cells were stained with 0.1 μM PKH26 (Millipore Sigma (St. Louis, MO)) prior to fixation in 4% formaldehyde solution. The cells were stained with anti-HLA-DRB1 and fluorescein AAL, or anti-human or anti-mouse PD-L1 overnight. The following day the cells were washed 3 times prior to adding AlexaFluor 594 donkey anti-rabbit. Cells were washed 3 times and then subject to flow cytometric analyses using a FACSCalibur (BD Biosciences (San Jose, CA)). Samples were analyzed using FlowJo analysis software (BD Biosciences (San Jose, CA)). Median values of DRB1 and AAL were normalized to PKH26 values and statistical analysis was performed using GraphPad Prism.

HLA-DRB1 [2] = assay: Immunofluorescent subcellular localization of HLA-DRB1 in WM793 cells; format: cell-based, human; conditions: compared with vehicle (DMSO)
Method: General fluorescent immunocytochemical staining protocol: Melanoma cells were grown on German glass coverslips (Electron Microscopy Services (Hatfield, PA)) and fixed in fixation buffer (4% formaldehyde, 2% sucrose in phosphate buffered saline (PBS) for 20 min at room temperature (RT). The coverslip-grown cells were subject to two 5-min standing washes in PBS prior to permeabilization in permeabilization buffer (0.4% Triton-X-100 and 0.4% IgG-free bovine serum albumin (BSA, Jackson ImmunoResearch Laboratories (Westgrove, PA) in PBS) for 20 min at RT. The coverslip-grown cells were next subject to 2 PBS washes and incubated with the indicated primary antibodies.

HLA-DRB1 [3] = assay: qRT-PCR and immunoblot of HLA-DRB1 mRNA and protein levels in melanoma cells; format: cell-based, human; conditions: 250 μM
Method: Cells were lysed on ice in RIPA lysis buffer (25 mM Tris-HCl pH 7.6, 150 mM NaCl, 5 mM EDTA, 1% NP-40 or 1% Triton X-100, 1% sodium deoxycholate, 0.1% SDS in diH2O+protease and phosphatase inhibitors (ThermoFisher Scientific (Waltham, MA)), briefly sonicated, pelleted, and the resulting lysates were normalized by protein concentration using DC assay (BioRad Laboratories, (Hercules, CA)). The indicated samples were subjected to (12%) SDS-PAGE and immunoblot analysis using the indicated antibodies. Immunoblot imaging and analysis was performed using either an Odyssey FC scanner and ImageStudio (LiCor Biosciences, Lincoln, NE) or film.
RNA from cells subjected to the indicated treatments was extracted using Gene Elute Mammalian Total RNA Extraction System (Millipore Sigma (St. Louis, MO)). RNA was reversed transcribed to cDNA using High-Capacity cDNA Reverse Transcription Kit (ThermoFisher Scientific (Waltham, MA)). qRT-PCR analysis was performed using FastStart Universal SYBR Green Master Mix (Rox) (Roche Diagnostics, (Indianapolis, IN)) using a BioRad CFX96 Real-time system (BioRad Laboratories, (Hercules, CA)). The qRT-PCR cycles used were as follows: 95° C. for 10 min, 35 cycles of 95° C. for 15 seconds, 55° C. for 60 seconds,
and 72° C. for 30 seconds. Expression of the indicated genes was normalized to histone H3A expression. […]

fucosylated HLA-DRB1 = assay: Lectin-mediated proximity ligation assay (L-PLA) of fucosylated HLA-DRB1 in WM793 cells; format: cell-based, human; conditions: melanoma cells
Method: Coverslip-grown cells subjected to L-PLA were processed upfront as described in the fluorescent immunocytochemistry protocol detailed above, whereas FFPE tumor tissue sections were processed according to the fluorescent immunohistochemistry protocol detailed above. Both approaches used mouse-anti-HLA-DRB1 (applied at 0.2 μg/mL, ab215835, Abcam, Cambridge, UK), biotinylated AAL lectin (applied at 0.2 μg/mL, Vector Laboratories (Burlingame, CA)), on coverslips overnight in 4° C. The coverslip-grown cells were again washed twice with PBS followed and then incubated with phalloidin Alexafluor 488 (applied at 0.05 μg/mL, ThermoFisher Scientific (Waltham, MA) with goat anti-biotin (applied at 0.1 μg/mL, Vector Laboratories (Burlingame, CA)) for 2h in 4° C. Subsequent steps of the protocol were adapted from the DUOlink In Situ Green PLA kit's manufacturer's protocol (Millipore Sigma (St. Louis, MO)). PLA anti-goat MINUS and PLA anti-mouse PLUS probes were applied at 1:5 for 1 h at 37° C. The coverslips were washed twice with Wash Buffer A prior to ligation with 1:5 ligation buffer and 1:40 ligase in ddH2O for 30 min at 37° C. […] Microscopy images were acquired using a Keyence BZ-X710, and images were process and analyzed using FIJI (NIH).

SW1 tumors [4] = assay: Flow cytometric profiling of tumors and lymph nodes, SW1 tumors in C3H/HeN mice fed ± L-fucose and treated ± FTY720 (Table 1); format: in vivo, mouse
Method: Tumors of SW1 or SM1 melanoma cells from […] or C57BL/6 mice, respectively) were digested using 1× tumor digest buffer (0.5 mg/mL Collagenase I, 0.5 mg/mL Collagenase IV, 0.25 mg/mL Hyalyronidase V, 0.1 mg/mL DNAse I in HBSS (Millipore Sigma (St. Louis, MO)). Tumors were homogenized using the Miltenyi MACs dissociator. Red blood cells were lysed using ACK lysis buffer (Life Technologies, (Grand Island, NY)). Tumor homogenate cells were counted using a standard hemocytometer.
Total TILs were gated first to single cells (based on forward scatter height vs width, followed by side scatter height vs. width). Live cells were gated from the Zombie negative population from the population above. TILs were gated based on splenocyte size from a control spleen. Individual immune subpopulations were sub-gated from the total TIL population using the following staining criteria: CD3^+ for CD3^+ T cells; CD3^+/CD4^+/CD8^− for CD4^+T cells; CD3^+/CD4^−/CD8^+ for CD8^+ T cells, CD11c^+/CD11b^+ for DCs; either NK1.1 (for C57/BL6 mice) or DX5 (for C3H/HeJ) for NK cells; CD11b^+/GR1^+ for MDSC-like cells; and F4/80^+ for macrophages. Single-cell suspensions from tumor and spleen tissue were stained with Live/Dead Zombie NIR (Biolegend, (San Diego, CA)) at 1:1,000 in PBS for 20 min. Cell suspensions were spun down and stained with the following with antibodies at 0.5 μg/ml per antibody: APC anti-mouse CD3, Pacific Blue anti-mouse CD4, BV785 anti-mouse CD8, PerCP anti-mouse CD25, FITC anti-mouse F4/80, PeCy7 anti-mouse CD11c, PE anti-mouse NK1.1 or PE anti-mouse DX5, and PerCP-Cy5.5 anti-mouse CD11b. After staining, the cells were washed and fixed (2% formaldehyde), followed by another wash and flow cytometric analysis. The compensation controls were prepared using 0.5 μg/mL of each antibody with UltraComp eBeads, (ThermoFisher Scientific (Waltham, MA)). All samples were subject to flow cytometric profiling using a LSR Flow Cytometer (BD Biosciences (San Jose, CA)) and analysis as indicated using FlowJo software (BD Biosciences (San Jose, CA)).
(§1) For all mouse models, 1×10^6 melanoma cells were injected subcutaneously in the right hind flanks of each mouse. […] This dosage is within ranges for dietary supplementation with L-fucose and other similar dietary sugars (e.g., D-mannose) in other rodent studies. When the tumors reached −2 cm^3, the animals were sacrificed, and the tumors either processed for flow cytometric profiling or for histological analysis as indicated.
(§2) Control vs. L-fucose±FTY720 models (FIG. 2): SW1 or SM1 mouse melanoma cells were injected into syngeneic C3H/HeN (or NSG) female or C57BL/6 male mice, respectively. Cells were injected as follows: parental SW1 cells for FIG. 1A; parental SM1 cells for FIG. 1E; SW1 cells stably expressing either empty vector (EV) or mouse fucose kinase (mFuk) for FIG. 1L; and parental SW1 cells for FIG. 1M. FTY720 was administered at 20 μg every 2 days starting on Day 12, just prior to the initiation of LF, until endpoint.

SW1 tumors [5] = assay: Volumetric tumor growth, SW1 melanoma in C3H/HeN mice (incl. immunodepletion, FTY720, anti-PD1); format: in vivo, mouse; conditions: SW1 melanoma C3H mouse model treated with FTY720 (inhibition of lymph node egress)
Excerpt: All animals were housed at the Vincent A. Stabile Research building animal facility at H. Lee Moffitt Cancer Center & Research Institute, which is fully accredited by the Association for Assessment and Accreditation of Laboratory Animal Care International (AAALAC, #434), and are managed in accordance with the Guide for the Care and Use of Laboratory Animals (“The Guide”), the Animal Welfare Regulations Title 9 Code of Federal Regulations Subchapter A, “Animal Welfare”, Parts 1-3 (AWR), the Public Health Service Policy on Humane Care and Use of Laboratory Animals (PHS Policy), and by the USF Institutional Animal Care and Use Committee's Principles and Procedures of Animal Care and Use (IACUC Principles). The experiments and protocols detailed in this study received institutional approval by the Moffitt IACUC (RIS00001625). Four-to-six-week-old female C3H/HeN and male C57BL6 mice were purchased from Charles Rivers Laboratories for the indicated experiments. Four-to-six-week-old male NSG mice from the Lau laboratory breeding colony were used for the indicated experiments. Power calculations were used to determine mouse cohort sizes to detect significant changes in tumor sizes. In general, 10 mice per indicated cohort to accommodate for incidental loss of mice due to issues beyond our control (e.g., incidental tumor ulceration that required exclusion from the study). Mouse tumor volumes were measured using length, width and depth divided by 2. At each experimental endpoint, mice were humanely euthanized using CO2 inhalation in accordance to the American Veterinary Medical Association guidelines.
as §1
Control vs. mFuk±L-fucose models (FIG. 1 & FIG. 8): SW1 or SM1 mouse melanoma cells were injected into syngeneic C3H/HeN (or NSG) female or C57BL/6 male mice, respectively, as follows: parental SW1 cells for FIG. 1A; parental SM1 cells for FIG. 1E; SW1 cells stably expressing either empty vector (EV) or mouse fucose kinase (mFuk) for FIG. 1L; and parental SW1 cells for FIG. 1M.
as §2
Immunodepletion mouse models (FIG. 1 & FIG. 8): Three days prior to tumor engraftment, PBS (control) or ˜300 μg α-CD4 (20 mg/kg, for immunodepletion, GK1.5, Bioxcell (West Lebanon, NH)) or 0-CD8 (20 mg/kg, for immunodepletion, 2.43, Bioxcell (West Lebanon, NH)) was administered by intraperitoneal injection into the indicated cohorts of mice. Injections of immunodepletion antibody or PBS were continued every 3-4 days until endpoint. Syngeneic recipient C3H/HeN female or C57BL/6 male mice were injected with SW1 or SM1 cells, respectively. […]

CC(=O)OC1O[C@@H](C)[C@@H](OC(C)=O)[C@@H](OC(C)=O)[C@@H]1F (some centres unmarked) [FUTi, 2F-peracteyl-fucose, reference compound]
cell surface HLA-DRB1 (HLA-DRB1 [1]): decreased | cell surface fucosylation (HLA-DRB1 [1]): decreased | subcellular localization of HLA-DRB1 (HLA-DRB1 [2]): dimmer, more central, endoplasmic reticulum-co-localization of HLA-DRB1 | HLA-DRB1 mRNA and protein levels (HLA-DRB1 [3]): remained unchanged | cytoplasmic/membranous localization of endogenous fucosylated HLA-DRB1 (L-PLA) (fucosylated HLA-DRB1): lost

CCCCCCCCc1ccc(CCC(N)(CO)CO)cc1 [FTY720, reference compound]
average # of CD4 stem central memory cells (SW1 tumors [4]; Day 28, tumors): 0.87 per 10^6 cells | average # of CD8 stem central memory cells (SW1 tumors [4]; Day 28, tumors): 0.00 per 10^6 cells | average # of CD8 effector memory cells (SW1 tumors [4]; Day 42, tumors): 220.02 per 10^6 cells | average # of CD8 stem central memory cells (SW1 tumors [4]; Day 42, tumors): 0.00 per 10^6 cells | intratumoral CD4+T central and effector memory subpopulations (SW1 tumors [4]; SW1 model ± FTY720): abrogated | L-fuc-triggered tumor suppression (SW1 tumors [5]): completely abrogated
